The test system of one series is HIV-1. Briefly: microbe, parasite or virus in culture. Format: cell-based. As to conditions: Human immunodeficiency virus 1, SUP-T1, 48 h, read-out: HIV-1 IC50.
Series [1] can be described thus: Cytotoxicity assay (MTT), uninfected Huh7.5 cells. Format: cell-based. Conditions: human, read-out: HCV CC50. The protocol:
Cytotoxicity of compounds were assayed for the uninfected 293T-Gluc, SupT1, and Huh7.5 cells. 293T-Gluc and Huh7.5 cells were cultured in Dulbecco’s modified Eagle’s medium supplemented with 10% fetal bovine serum (FBS, Invitrogen). SupT1 cells were cultured in RPMI1640 medium supplemented with 10% FBS. Various concentrations of test compounds (1 μL each well) were added to the 293T-Gluc and SupT1 cells (1 × 10^5 cells/well) in 96-well plates. After incubation at 37 °C for 48 h, 10 μL of CCK-8 reagent was added to the cells and they were incubated for another 4 h. Then, the absorbance of each well was recorded at 450 nm. A cytotoxicity assay for Huh7.5 cells was carried out using the MTT method as described previously.

A further series has as its system Pseudomonas aeruginosa. Briefly: Antibacterial assay, broth micro-dilution MIC, P. aeruginosa. Format: cell-based. As to conditions: read-out: MIC against Pseudomonas aeruginosa. The protocol:
(§1) The antibacterial activities against H. pylori, S. aureus, B. subtilis, P. aeruginosa, and K. pneumonia were assayed by examining the MIC using the broth micro-dilution method as previously described.
A general note: Broth dilution looks for growth in wells or tubes with falling amounts of substance.

The next series concerns Helicobacter pylori. In words: Antibacterial assay, broth micro-dilution MIC, H. pylori. As to conditions: for MIC: Helicobacter pylori; for H. pylori MIC, range over strains: clinically isolated H. pylori, strains G27 and 159 together. Format: cell-based. As for the experimental part: as §1
A further series deals with Klebsiella pneumoniae. In words: Antibacterial assay, broth micro-dilution MIC, K. pneumoniae. The class given is cell-based. As to conditions: read-out: MIC against Klebsiella pneumoniae. The protocol:
as §1

The subject of another series is Staphylococcus aureus. Briefly: Antibacterial assay, broth micro-dilution MIC, S. aureus. The class given is cell-based. Conditions: read-out: MIC against Staphylococcus aureus. As for the experimental part:
as §1

The test system of another series is Bacillus subtilis. In words: Antibacterial assay, broth micro-dilution MIC, B. subtilis. The class given is cell-based. As to conditions: read-out: MIC against Bacillus subtilis. The protocol:
as §1

The next series concerns HCV. Briefly: Anti-HCV assay. The class given is cell-based. As to conditions: Hepatitis C virus. The protocol: Anti-HCV assays were carried out as described previously.
Series [2] in a line: in vitro. As to conditions: human.
Series [3] in a line: in vitro. Conditions: human. This is another data set of the same source.
For series [4], the system named is wild-type and multi-drug resistant HIV-1. On the set-up: method as in doi:10.1007/s11426-018-9283-3. Conditions: cited from earlier work.
[5] abbreviates: drug-resistant strain 159, read-out: H. pylori MIC, 159.
Setting [6] is: drug-sensitive strain G27, read-out: H. pylori MIC, G27.

Values after ≈ are worked out from the molar mass of the structure shown. Read-outs that look alike come from different tables or passages of the source. Some results are limits rather than exact numbers.

Consider `CC[C@H](C)c1nc(OC)c(Cc2c[nH]c3ccccc23)nc1O` [Compound 1, (S)-6-((1H-indol-3-yl)methyl)-3-(sec-butyl)-5-methoxypyrazin-2-ol], for which the results for the IC50 with HIV-1 and with HCV were 4.6 ± 0.3 µM and 7.7 ± 0.2 µM, respectively. Moreover, the CC50 in series [1] is 116 ± 4.9 µM. The MIC in the series on Pseudomonas aeruginosa was over 128 µg/mL; in the series with Helicobacter pylori (setting [5]) it was 16 µg/mL (≈ 51.4 µM); in the series on Helicobacter pylori (setting [6]), 4 µg/mL (≈ 12.8 µM); in the series on Klebsiella pneumoniae, over 128 µg/mL; with Staphylococcus aureus, over 128 µg/mL; in the series with Bacillus subtilis, over 128 µg/mL. Also, in the series with Helicobacter pylori, the “H. pylori MIC, range over strains” value lay in the range of 1 to 16 µg/mL.
For `CC(C)[C@@H](C)/C=C/[C@@H](C)[C@H]1CC[C@H]2C3=C[C@@H](O)[C@@]4(O)C[C@@H](O)CC[C@]4(C)[C@H]3CC[C@]12C` [Compound 8, (22E,24R)-24-methyl-5α-cholesta-7,22-dien-3β,5,6β-triol], the IC50 with HIV-1 worked out at 6.2 ± 0.2 µM.
Consider `O=C1Nc2ccc(Cl)cc2[C@@](C#CC2CC2)(C(F)(F)F)O1` [Efavirenz, reference compound], for which the CC50 in the series “in vitro [2]” was over 100 µM.
On to `NC(=O)c1ncn([C@@H]2O[C@H](CO)[C@@H](O)[C@H]2O)n1` [Ribavirin, reference compound], for which the CC50 in “in vitro [3]” was over 100 µM.
As for `COc1cc(=O)oc(C=CC=CC=CC(C)=CC2(C)OC(C)C(C)(O)C2O)c1C` (single isomer, unassigned; (+)) [Compound 2, (+)-neocitreoviridin], the CC50 in the series “in vitro [2]” is over 100 µM. Besides, in the series on HIV-1, the IC50 was over 10 µM. In addition, the MIC in the series on Pseudomonas aeruginosa was over 128 µg/mL; with Helicobacter pylori (setting [5]) it was 1 µg/mL (≈ 2.48 µM); in the series with Helicobacter pylori (setting [6]), 4 µg/mL (≈ 9.94 µM); in the series with Klebsiella pneumoniae it was over 128 µg/mL; in the series with Staphylococcus aureus, over 128 µg/mL; in the series with Bacillus subtilis it was over 128 µg/mL. Also, the “H. pylori MIC, range over strains” value with Helicobacter pylori was 1 to 16 µg/mL.
Turning to `C=C(CC[C@@H](C)[C@H]1CC=C2C3=C(CC[C@@]21C)[C@@]1(C)CC[C@H](O)CC1CC3=O)C(C)C` (stereo partly drawn) [Compound 3, 3β-hydroxyergosta-8,14,24(28)-trien-7-one], in the series with HIV-1, the IC50 amounted to 3.5 ± 0.8 µM.
Turning to `C=C(CC[C@@H](C)[C@H]1CC[C@H]2C3=C(CC[C@]12C)[C@@]1(C)CC[C@H](O)CC1CC3=O)C(C)C` (stereo partly drawn) [Compound 7, 3β-hydroxyergosta-8,24(28)-dien-7-one], in “in vitro [2]”, the CC50 is over 100 µM. Besides, the IC50 in the series with HIV-1 is over 10 µM.
Take `CCC[C@H](NC(=O)[C@@H]1[C@H]2CCC[C@H]2CN1C(=O)[C@@H](NC(=O)[C@@H](NC(=O)c1cnccn1)C1CCCCC1)C(C)(C)C)C(=O)C(=O)NC1CC1` [VX-950, reference compound]: the CC50 in series [1] was found to be 25.8 ± 3.4 µM. In the series with HCV, the IC50 is 0.05 ± 0.03 µM.
As to `Cc1ncc([N+](=O)[O-])n1CCO` [Metronidazole, reference compound], the MIC was determined as 16 µg/mL (≈ 93.5 µM) with Helicobacter pylori (setting [5]) and 1 µg/mL (≈ 5.84 µM) in the series with Helicobacter pylori (setting [6]).
In the case of `CC(C)[C@H](C)CC[C@](C)(O)[C@H]1C(=O)C[C@H]2[C@@H]3C(=O)C=C4C[C@@H](O)CC[C@]4(C)[C@H]3CC[C@@]21C` [amotsterol D, (20S,24R)-3β,20-dihydroxyergostan-5(6)-en-7,16-dione], the “effectiveness against HIV-1” value in series [4] is “low micromolar range”.

Usually IC50 stands for the concentration that gives 50% inhibition. The MIC is the smallest concentration in the dilution series that meets the test's criterion for growth inhibition.

(Values after PMC6696147, “Broad-Spectrum Antiviral Natural Products from the Marine-Derived Penicillium sp. IMB17-046” (Molecules, 2019).)
